Values after ≈ are worked out from the molar mass of the structure shown.
Columns and labels:
M. smegmatis group = test: MIC (CLSI broth dilution), RGM isolates; type: cell-based
M. fortuitum group = test: MIC (CLSI broth dilution), RGM isolates; type: cell-based
M. arupense = test: MIC (CLSI broth dilution), slow-growing NTM isolates; type: cell-based; conditions: isolate 11, Other
M. abscessus complex = test: MIC (CLSI broth dilution), RGM isolates; type: cell-based
[1] = tested on: rapid-growing mycobacteria (RGM) isolates; test: MIC (CLSI broth dilution), all RGM isolates; type: cell-based, nontuberculous mycobacteria; conditions: all 50 RGM isolates
Mycobacterium fortuitum = test: MIC by broth microdilution in CAMHB, clinical isolates; type: cell-based
Protocol: (§1) A total of 24 clinical isolates of Mycobacterium abscessus, 22 clinical isolates of Mycobacterium chelonae and 20 clinical isolates of Mycobacterium fortuitum were tested in the study. The study also used the antibiotics tigecycline, doxycycline and amikacin for comparison purposes. […] Amikacin was dissolved in DMSO prior to freezing at −20° C. For susceptibility testing, stock solutions of antibiotic compounds were serially diluted in 50 μL of cation adjusted Mueller-Hinton broth (CAMHB) in polystryrene 96-well round-bottom microtiter plates. To each well, 50 μL of the appropriate mycobacterial cell suspension was added to yield a final concentration of about 1×10^5 CFU/mL. The inoculum used for each isolate was measured by titration in saline with Tween 80 and plating on MH agar. The Mycobacterium abscessus and Mycobacterium fortuitum titer plates were incubated at 37° C. in ambient air for 3-4 days and 5-7 days, respectively. The Mycobacterium chelonae titer plates were incubated at 30° C. in ambient air for 3-5 days. Each isolate was tested at least in duplicate. The MIC was defined as the lowest concentration of antimicrobial agent yielding no visible turbidity.

Mycobacterium abscessus = test: as above; type: cell-based
Protocol: as §1

Mycobacterium chelonae = test: as above; type: cell-based
Protocol: as §1

M. chelonae = test: MIC (CLSI broth dilution), RGM isolates; type: cell-based
M. mucogenium group = test: MIC (CLSI broth dilution), RGM isolates; type: cell-based
M. immunogenum group = test: MIC (CLSI broth dilution), RGM isolates; type: cell-based; conditions: M. immunogenum
[2] = 24 clinical isolates (tigecycline: subset N=14)

C[C@H]1c2cccc(O)c2C(=O)C2=C(O)[C@]3(O)C(=O)C(C(N)=O)=C(O)[C@@H](N(C)C)[C@@H]3[C@@H](O)[C@@H]21 [Doxycycline, doxycycline]
MIC (M. smegmatis group; isolate 49, M. smegmatis group, M. goodii): ≤0.12 µg/mL | MIC (M. smegmatis group; isolate 50, M. smegmatis group, M. wolinskyi): 1 µg/mL (≈ 2.25 µM) | MIC (M. fortuitum group; isolate 23, M. fortuitum group, M. fortuitum): ≤0.12 µg/mL | MIC (M. fortuitum group; isolate 24, M. fortuitum group, M. fortuitum): 0.25 µg/mL (≈ 0.563 µM) | MIC (M. fortuitum group; isolate 25, M. fortuitum group, M. fortuitum): >8 µg/mL | MIC (M. fortuitum group; isolate 26, M. fortuitum group, M. porcinum): 4 µg/mL (≈ 9 µM) | MIC (M. fortuitum group; isolate 27, M. fortuitum group, M. porcinum): 8 µg/mL (≈ 18 µM) | MIC (M. fortuitum group; isolate 28, M. fortuitum group, M. porcinum/M. boenickei): 2 µg/mL (≈ 4.5 µM) | MIC (M. fortuitum group; isolate 29, M. fortuitum group, M. porcinum/M. boenickei): >8 µg/mL | MIC (M. fortuitum group; isolate 30, M. fortuitum group, M. porcinum/M. boenickei): >8 µg/mL | MIC (M. fortuitum group; isolate 31, M. fortuitum group, M. senegalense): ≤0.12 µg/mL | MIC (M. fortuitum group; isolate 32, M. fortuitum group, M. senegalense): ≤0.12 µg/mL | MIC (M. fortuitum group; isolate 33, M. fortuitum group, M. senegalense): ≤0.12 µg/mL | MIC (M. fortuitum group; isolate 34, M. fortuitum group, M. senegalense): ≤0.12 µg/mL | MIC (M. arupense): 16 µg/mL (≈ 36 µM) | MIC (M. abscessus complex; isolate 1, M. abscessus complex, erm gene type MAB30): >8 µg/mL | MIC (M. abscessus complex; isolate 2, M. abscessus complex, erm gene type MAB30): >8 µg/mL | MIC (M. abscessus complex; isolate 3, M. abscessus complex, erm gene type MAB30): >8 µg/mL | MIC (M. abscessus complex; isolate 4, M. abscessus complex, erm gene type massiliense): >8 µg/mL | MIC (M. abscessus complex; isolate 5, M. abscessus complex, erm gene type massiliense/subsp. abs hybrid): >8 µg/mL | MIC (M. abscessus complex; isolate 6, M. abscessus complex, erm gene type Type 1 abscessus): >8 µg/mL | MIC (M. abscessus complex; isolate 7, M. abscessus complex, erm gene type Type 1 abscessus): >8 µg/mL | MIC (M. abscessus complex; isolate 8, M. abscessus complex, erm gene type Type 1 abscessus): >8 µg/mL | MIC (M. abscessus complex; isolate 9, M. abscessus complex, erm gene type Type 1 abscessus): >8 µg/mL | MIC (M. abscessus complex; isolate 10, M. abscessus complex, erm gene type Type 1 abscessus): >8 µg/mL | MIC (M. abscessus complex; isolate 11, M. abscessus complex, erm gene type Type 6 abscessus): >8 µg/mL | MIC (M. abscessus complex; isolate 12, M. abscessus complex, erm gene type Type 6 abscessus): >8 µg/mL | MIC (M. abscessus complex; isolate 13, M. abscessus complex, erm gene type Type 6 abscessus): >8 µg/mL | MIC (M. abscessus complex; isolate 14, M. abscessus complex, erm gene type Type 6 abscessus): 8 µg/mL (≈ 18 µM) | MIC (M. abscessus complex; isolate 15, M. abscessus complex, erm gene type Type 7 abscessus): >8 µg/mL | MIC (M. abscessus complex; isolate 16, M. abscessus complex, erm gene type Type 7 abscessus): >8 µg/mL | MIC (M. abscessus complex; isolate 17, M. abscessus complex, erm gene type Type 8 abscessus): >8 µg/mL | MIC50 [1]: >8 µg/mL | MIC90 [1]: >8 µg/mL | MIC50 (Mycobacterium fortuitum; 20 clinical isolates): 8 µg/mL (≈ 18 µM) | MIC90 (Mycobacterium fortuitum; 20 clinical isolates): 64 µg/mL (≈ 144 µM) | MIC (Mycobacterium fortuitum; isolate No. 1, 3349): 16 µg/mL (≈ 36 µM) | MIC (Mycobacterium fortuitum; isolate No. 2, 3499): 0.06 µg/mL (≈ 0.135 µM) | MIC (Mycobacterium fortuitum; isolate No. 3, 2797): >64 µg/mL | MIC (Mycobacterium fortuitum; isolate No. 4, 32): 0.125 µg/mL (≈ 0.281 µM) | MIC (Mycobacterium fortuitum; isolate No. 5, 33): 0.125 µg/mL (≈ 0.281 µM) | MIC (Mycobacterium fortuitum; isolate No. 6, 3489): 8 µg/mL (≈ 18 µM) | MIC (Mycobacterium fortuitum; isolate No. 7, 3491): <0.06 µg/mL | MIC (Mycobacterium fortuitum; isolate No. 8, 54): <0.06 µg/mL | MIC (Mycobacterium fortuitum; isolate No. 9, 38): 0.5 µg/mL (≈ 1.13 µM) | MIC (Mycobacterium fortuitum; isolate No. 10, 36): 0.125 µg/mL (≈ 0.281 µM) | MIC (Mycobacterium fortuitum; isolate No. 11, 3480): 16 µg/mL (≈ 36 µM) | MIC (Mycobacterium fortuitum; isolate No. 12, 3126): 16 µg/mL (≈ 36 µM) | MIC (Mycobacterium fortuitum; isolate No. 13, 3579): 16 µg/mL (≈ 36 µM) | MIC (Mycobacterium fortuitum; isolate No. 14, 7484): 64 µg/mL (≈ 144 µM) | MIC (Mycobacterium fortuitum; isolate No. 15, 3488): 32 µg/mL (≈ 72 µM) | MIC (Mycobacterium fortuitum; isolate No. 16, 3276): 0.25 µg/mL (≈ 0.563 µM) | MIC (Mycobacterium fortuitum; isolate No. 17, 3442): 0.25 µg/mL (≈ 0.563 µM) | MIC (Mycobacterium fortuitum; isolate No. 18, 3316): 32 µg/mL (≈ 72 µM) | MIC (Mycobacterium fortuitum; isolate No. 19, 3490): 16 µg/mL (≈ 36 µM) | MIC (Mycobacterium fortuitum; isolate No. 20, 2491): >64 µg/mL | MIC50 (Mycobacterium abscessus; [2]): >64 µg/mL | MIC90 (Mycobacterium abscessus; [2]): >64 µg/mL | MIC (Mycobacterium abscessus; isolate No. 1, BB2): >64 µg/mL | MIC (Mycobacterium abscessus; isolate No. 2, BB4): 2 µg/mL (≈ 4.5 µM) | MIC (Mycobacterium abscessus; isolate No. 3, 5922): 16 µg/mL (≈ 36 µM) | MIC (Mycobacterium abscessus; isolate No. 4, BB3): 4 µg/mL (≈ 9 µM) | MIC (Mycobacterium abscessus; isolate No. 5, BB6): 16 µg/mL (≈ 36 µM) | MIC (Mycobacterium abscessus; isolate No. 6, 5908): >64 µg/mL | MIC (Mycobacterium abscessus; isolate No. 7, BB7): 0.25 µg/mL (≈ 0.563 µM) | MIC (Mycobacterium abscessus; isolate No. 8, 6031): 2 µg/mL (≈ 4.5 µM) | MIC (Mycobacterium abscessus; isolate No. 9, 5785): 2 µg/mL (≈ 4.5 µM) | MIC (Mycobacterium abscessus; isolate No. 10, BB8): >64 µg/mL | MIC (Mycobacterium abscessus; isolate No. 11, 6111): >64 µg/mL | MIC (Mycobacterium abscessus; isolate No. 12, 6005): >64 µg/mL | MIC (Mycobacterium abscessus; isolate No. 13, 5605): >64 µg/mL | MIC (Mycobacterium abscessus; isolate No. 14, 5931): 16 µg/mL (≈ 36 µM) | MIC (Mycobacterium abscessus; isolate No. 15, BB1): >64 µg/mL | MIC (Mycobacterium abscessus; isolate No. 16, BB5): >64 µg/mL | MIC (Mycobacterium abscessus; isolate No. 17, 5812): >64 µg/mL | MIC (Mycobacterium abscessus; isolate No. 18, 5901): >64 µg/mL | MIC (Mycobacterium abscessus; isolate No. 19, 5960): 8 µg/mL (≈ 18 µM) | MIC (Mycobacterium abscessus; isolate No. 20, 6142): >64 µg/mL | MIC (Mycobacterium abscessus; isolate No. 21, 5922): 32 µg/mL (≈ 72 µM) | MIC (Mycobacterium abscessus; isolate No. 22, LT 949): >64 µg/mL | MIC (Mycobacterium abscessus; isolate No. 23, 6025): >64 µg/mL | MIC (Mycobacterium abscessus; isolate No. 24, 6153): >64 µg/mL | MIC50 (Mycobacterium chelonae; 22 clinical isolates): 32 µg/mL (≈ 72 µM) | MIC90 (Mycobacterium chelonae; 22 clinical isolates): 64 µg/mL (≈ 144 µM) | MIC (Mycobacterium chelonae; isolate No. 1, MC 7323): 64 µg/mL (≈ 144 µM) | MIC (Mycobacterium chelonae; isolate No. 2, MC 7534): 32 µg/mL (≈ 72 µM) | MIC (Mycobacterium chelonae; isolate No. 3, MC 7368): 64 µg/mL (≈ 144 µM) | MIC (Mycobacterium chelonae; isolate No. 4, MC 7514): 32 µg/mL (≈ 72 µM) | MIC (Mycobacterium chelonae; isolate No. 5, MC 7584): 64 µg/mL (≈ 144 µM) | MIC (Mycobacterium chelonae; isolate No. 6, MC 7192): 16 µg/mL (≈ 36 µM) | MIC (Mycobacterium chelonae; isolate No. 7, MC 7466): 32 µg/mL (≈ 72 µM) | MIC (Mycobacterium chelonae; isolate No. 8, MC 7533): 64 µg/mL (≈ 144 µM) | MIC (Mycobacterium chelonae; isolate No. 9, MC 7579): 16 µg/mL (≈ 36 µM) | MIC (Mycobacterium chelonae; isolate No. 10, MC 7614): 64 µg/mL (≈ 144 µM) | MIC (Mycobacterium chelonae; isolate No. 11, MC 7414): 32 µg/mL (≈ 72 µM) | MIC (Mycobacterium chelonae; isolate No. 12, MC 7313): 32 µg/mL (≈ 72 µM) | MIC (Mycobacterium chelonae; isolate No. 13, MC 7281): 64 µg/mL (≈ 144 µM) | MIC (Mycobacterium chelonae; isolate No. 14, MC 7328): 16 µg/mL (≈ 36 µM) | MIC (Mycobacterium chelonae; isolate No. 15, MC 7294): 32 µg/mL (≈ 72 µM) | MIC (Mycobacterium chelonae; isolate No. 16, MC 14-S-03): 64 µg/mL (≈ 144 µM) | MIC (Mycobacterium chelonae; isolate No. 17, MC 14-S-04): 32 µg/mL (≈ 72 µM) | MIC (Mycobacterium chelonae; isolate No. 18, MC 14-S-05): 32 µg/mL (≈ 72 µM) | MIC (Mycobacterium chelonae; isolate No. 19, MC 14-S-06): 64 µg/mL (≈ 144 µM) | MIC (Mycobacterium chelonae; isolate No. 20, MC 14-S-07): 32 µg/mL (≈ 72 µM) | MIC (Mycobacterium chelonae; isolate No. 21, MC 35757): 32 µg/mL (≈ 72 µM) | MIC (Mycobacterium chelonae; isolate No. 22, MC 7302): 64 µg/mL (≈ 144 µM) | MIC (M. chelonae; isolate 18, M. chelonae): >8 µg/mL | MIC (M. chelonae; isolate 19, M. chelonae): >8 µg/mL | MIC (M. chelonae; isolate 20, M. chelonae): >8 µg/mL | MIC (M. chelonae; isolate 21, M. chelonae): >8 µg/mL | MIC (M. chelonae; isolate 22, M. chelonae): >8 µg/mL | MIC (M. mucogenium group; isolate 39, M. mucogenicum group, M. mucogenicum): 0.25 µg/mL (≈ 0.563 µM) | MIC (M. mucogenium group; isolate 40, M. mucogenicum group, M. mucogenicum): ≤0.12 µg/mL | MIC (M. mucogenium group; isolate 41, M. mucogenicum group, M. mucogenicum): ≤0.12 µg/mL | MIC (M. mucogenium group; isolate 42, M. mucogenicum group, M. mucogenicum): ≤0.12 µg/mL | MIC (M. mucogenium group; isolate 43, M. mucogenicum group, M. phocaicum): ≤0.12 µg/mL | MIC (M. mucogenium group; isolate 44, M. mucogenicum group, M. phocaicum): >8 µg/mL | MIC (M. mucogenium group; isolate 45, M. mucogenicum group, M. phocaicum): >8 µg/mL | MIC (M. mucogenium group; isolate 46, M. mucogenicum group, M. phocaicum): >8 µg/mL | MIC (M. mucogenium group; isolate 47, M. mucogenicum group, M. phocaicum): 0.25 µg/mL (≈ 0.563 µM) | MIC (M. mucogenium group; isolate 48, M. mucogenicum group, M. phocaicum): 4 µg/mL (≈ 9 µM) | MIC (M. immunogenum group; isolate 35, M. immunogenum group): >8 µg/mL | MIC (M. immunogenum group; isolate 36, M. immunogenum group): 1 µg/mL (≈ 2.25 µM) | MIC (M. immunogenum group; isolate 37, M. immunogenum group): >8 µg/mL | MIC (M. immunogenum group; isolate 38, M. immunogenum group): >8 µg/mL
